Experimental data as given in the NIST ThermoML archive (doi:10.1016/j.jct.2011.08.016).

Assay: xn = mol fraction of the nth substance listed
Settings: Liquid, Vibrating tube method

CCCCCCCCCC [decane] + CCCCCCC
Settings | mass density [kg/m3]
313.16 K, 1000 kPa, x2 = 0.0531 | 713.67
313.16 K, 1000 kPa, x2 = 0.2594 | 706.37
313.16 K, 2000 kPa, x2 = 0.0531 | 714.44
313.16 K, 2000 kPa, x2 = 0.2594 | 707.17
313.16 K, 3000 kPa, x2 = 0.0531 | 715.27
313.16 K, 3000 kPa, x2 = 0.2594 | 707.97
313.16 K, 4000 kPa, x2 = 0.0531 | 716.08
313.16 K, 4000 kPa, x2 = 0.2594 | 708.78
313.16 K, 5000 kPa, x2 = 0.0531 | 716.94
313.16 K, 5000 kPa, x2 = 0.2594 | 709.65
313.16 K, 6000 kPa, x2 = 0.0531 | 717.67
313.16 K, 6000 kPa, x2 = 0.2594 | 710.5
313.16 K, 7000 kPa, x2 = 0.0531 | 718.51
313.16 K, 7000 kPa, x2 = 0.2594 | 711.35
313.16 K, 8000 kPa, x2 = 0.0531 | 719.34
313.16 K, 8000 kPa, x2 = 0.2594 | 712.2
313.16 K, 9000 kPa, x2 = 0.0531 | 720.13
313.16 K, 9000 kPa, x2 = 0.2594 | 713.05
313.16 K, 10000 kPa, x2 = 0.0531 | 721
313.16 K, 10000 kPa, x2 = 0.2594 | 713.88
313.16 K, 10990 kPa, x2 = 0.0531 | 721.8
313.16 K, 10990 kPa, x2 = 0.2594 | 714.7
313.16 K, 12000 kPa, x2 = 0.0531 | 722.62
313.16 K, 12000 kPa, x2 = 0.2594 | 715.51
313.16 K, 13000 kPa, x2 = 0.0531 | 723.44
313.16 K, 13000 kPa, x2 = 0.2594 | 716.3
313.16 K, 14000 kPa, x2 = 0.0531 | 724.26
313.16 K, 14000 kPa, x2 = 0.2594 | 717.1
313.16 K, 15000 kPa, x2 = 0.0531 | 725.05
313.16 K, 15000 kPa, x2 = 0.2594 | 717.87
313.16 K, 16000 kPa, x2 = 0.0531 | 725.84
313.16 K, 16000 kPa, x2 = 0.2594 | 718.64
313.16 K, 17000 kPa, x2 = 0.0531 | 726.57
313.16 K, 17000 kPa, x2 = 0.2594 | 719.39
313.16 K, 18000 kPa, x2 = 0.0531 | 727.29
313.16 K, 18000 kPa, x2 = 0.2594 | 720.16
313.16 K, 19000 kPa, x2 = 0.0531 | 728.02
313.16 K, 19000 kPa, x2 = 0.2594 | 720.88
313.16 K, 20000 kPa, x2 = 0.0531 | 728.71
313.16 K, 20000 kPa, x2 = 0.2594 | 721.61
313.16 K, 21000 kPa, x2 = 0.0531 | 729.39
313.16 K, 21000 kPa, x2 = 0.2594 | 722.32
313.16 K, 22000 kPa, x2 = 0.0531 | 730.07
313.16 K, 22000 kPa, x2 = 0.2594 | 723.02
313.16 K, 23000 kPa, x2 = 0.0531 | 730.67
313.16 K, 23000 kPa, x2 = 0.2594 | 723.68
313.16 K, 24000 kPa, x2 = 0.0531 | 731.27
313.16 K, 24000 kPa, x2 = 0.2594 | 724.32
313.16 K, 25000 kPa, x2 = 0.0531 | 731.84
313.16 K, 25000 kPa, x2 = 0.2594 | 724.92
313.17 K, 1000 kPa, x2 = 0.952 | 671.13
313.17 K, 2000 kPa, x2 = 0.952 | 672.16
313.17 K, 3000 kPa, x2 = 0.952 | 673.18
313.17 K, 4000 kPa, x2 = 0.952 | 674.17
313.17 K, 5000 kPa, x2 = 0.952 | 675.18
313.17 K, 6000 kPa, x2 = 0.952 | 676.18
313.17 K, 7000 kPa, x2 = 0.952 | 677.15
313.17 K, 8000 kPa, x2 = 0.952 | 678.12
313.17 K, 9000 kPa, x2 = 0.952 | 679.08
313.17 K, 10000 kPa, x2 = 0.952 | 680.03
313.17 K, 10990 kPa, x2 = 0.952 | 680.95
313.17 K, 12000 kPa, x2 = 0.952 | 681.86
313.17 K, 13000 kPa, x2 = 0.952 | 682.77
313.17 K, 14000 kPa, x2 = 0.952 | 683.65
313.17 K, 15000 kPa, x2 = 0.952 | 684.52
313.17 K, 16000 kPa, x2 = 0.952 | 685.39
313.17 K, 17000 kPa, x2 = 0.952 | 686.24
313.17 K, 18000 kPa, x2 = 0.952 | 687.08
313.17 K, 19000 kPa, x2 = 0.952 | 687.9
313.17 K, 20000 kPa, x2 = 0.952 | 688.71
313.17 K, 21000 kPa, x2 = 0.952 | 689.52
313.17 K, 22000 kPa, x2 = 0.952 | 690.29
313.17 K, 23000 kPa, x2 = 0.952 | 691.05
313.17 K, 24000 kPa, x2 = 0.952 | 691.82
313.17 K, 25000 kPa, x2 = 0.952 | 692.57
313.18 K, 1000 kPa, x2 = 0.5219 | 695.19
313.18 K, 1000 kPa, x2 = 0.777 | 681.87
313.18 K, 2000 kPa, x2 = 0.5219 | 696.01
313.18 K, 2000 kPa, x2 = 0.777 | 682.77
313.18 K, 3000 kPa, x2 = 0.5219 | 696.84
313.18 K, 3000 kPa, x2 = 0.777 | 683.7
313.18 K, 4000 kPa, x2 = 0.5219 | 697.74
313.18 K, 4000 kPa, x2 = 0.777 | 684.64
313.18 K, 5000 kPa, x2 = 0.5219 | 698.6
313.18 K, 5000 kPa, x2 = 0.777 | 685.58
313.18 K, 6000 kPa, x2 = 0.5219 | 699.5
313.18 K, 6000 kPa, x2 = 0.777 | 686.52
313.18 K, 7000 kPa, x2 = 0.5219 | 700.44
313.18 K, 7000 kPa, x2 = 0.777 | 687.47
313.18 K, 8000 kPa, x2 = 0.5219 | 701.28
313.18 K, 8000 kPa, x2 = 0.777 | 688.4
313.18 K, 9000 kPa, x2 = 0.5219 | 702.17
313.18 K, 9000 kPa, x2 = 0.777 | 689.32
